The record followed here is patent US20100130454A1, “9,10-SECOPREGNANE DERIVATIVES AND MEDICINE” (NIPPON SHINYAKU CO., LTD., priority 2004, published 2010).

Data set [1] is described as follows: Metabolic rate in human liver microsome. The data set is classed as in vitro ADME. The note with it: pooled human liver microsome, 1 mg/mL protein, NADPH production system, pH 7.4, 37° C., HPLC. As to the method:
Metabolic rates of the compounds of the present invention mentioned in Examples and maxacalcitol in human liver microsome were compared and investigated.
As to the pooled human liver microsome (HHM-0323), those manufactured by Tissue Transformation Technologies were used. A 0.25M potassium phosphate buffer (pH 7.4) (200 μL), 5 μL of a 250 μM solution of each compound to be tested in DMSO, 50 μL of an NADPH production system (where 20 mg of (β-NADP^+, 70 mg of glucose-6-phosphate, 40 units of glucose-6-phosphate dehydrogenase and 20 mg of magnesium chloride were dissolved in 1 mL of distilled water) and 220 μL of distilled water were added to a microtube and the mixture was subjected to a preincubation for 5 minutes at 37° C. Reaction was started by addition of 25 μL of human liver microsome (final concentration of protein: 1 mg/mL). Incubation was performed for 2, 10, 30 or 60 minutes and the reaction was stopped by addition of 500 μL of acetonitrile. After centrifugation at 13,000 rpm for 5 minutes, each test compound in the supernatant (25 μL) was measured by an HPLC under the following conditions.
Inertsil ODS-3 (4.6×150 mm; GL Science) was used as a column. With regard to mobile phase, a solution A (acetonitrile/0.1% aqueous solution of ammonium acetate=10/90) and a solution B (acetonitrile/0.1% aqueous solution of ammonium acetate=90/10) were used under the linear gradient conditions mentioned in Table 4. Column temperature, flow rate and wavelength for detection were set at 40° C., 1.0 mL/min. and UV 270 nm, respectively.
From the result of measurement by the above-mentioned HPLC, metabolic rates of the test compounds were calculated.

The nature of data set [2]: Action to raise the urinary excretion of calcium (2), intravenous administration. The data set is classed as in vivo, rat. The note with it: male SD rats, intravenous 22.4 nmol/kg. As to the method:
The compound of the present invention mentioned in Examples 3 or 8, or maxacalcitol (22.4 nmol/kg) was subjected to an intravenous administration to male rats (7 weeks of age) of the SD strain. A physiological saline containing 0.1% of Triton X 100 was administered to a control group. Calcium concentration in urine collected during 24 hours after the administration was measured and urinary excretion of calcium ([calcium concentration in urine]×[amount of urine]) and ratio of urinary excretion of calcium based on the control group ([calcium amount in urine upon administration of the compound to be tested]/[calcium amount in urine in the control group]) were calculated.

Data set [3] is described as follows: Action to raise calcium concentration in serum, repeated percutaneous administration. The note with it: male SD rats, percutaneous 33 μg/200 μL/kg/day once daily for seven days, blood 24 hours after final administration. The data set is classed as in vivo, rat. As to the method: A solution of the compound of the present invention mentioned in Example 1 or maxacalcitol in ethanol containing 0.3% of DMSO was repeatedly subjected to a percutaneous administration (33 μg/200 μL/kg/day) for seven days once daily onto the back of male rats (7 weeks of age) of the SD strain. An ethanol solution containing 0.3% of DMSO was administered to a control group. At 24 hours after the final administration, blood was collected and calcium concentration in serum was measured.

Data set [4] concerns human acute myelogenous leukemia cell line HL-60. Nature of the data set: Ability to induce differentiation of HL-60 cells (oxygen radical production after phorbol ester stimulation, WST-1). The data set is classed as cell-based. The note with it: Homo sapiens, 72 hours incubation, then WST-1 and phorbol 12,13-didecanoate for 4 hours, absorbance at 450, read-out: EC50 (50%-maximal effect concentration), induction of HL-60 differentiation. From the text: It has been known that human acute myelogenous leukemia cell line HL-60 is differentiated into a neutrophil-like cell by active form of vitamin D. Thus, the cells after the differentiation begin to express a surface marker such as CD11 and CD32 and, at the same time, they produce oxygen radical by stimulation with a phorbol ester. In this test, the above-mentioned property was utilized to assess an ability to induce the differentiation of HL-60 cell of the compounds of the present invention mentioned in the Examples and maxacalcitol using as an indicator the amount of oxygen radical produced by stimulation with a phorbol ester whereby a vitamin D3 activity was compared and investigated. When commercially available reagents and kits were used, they were used according to the indications attached thereto.
(Procedure) HL-60 cells (supplied from ATCC) were seeded on a 96-well plate at 5×10^3 cells/100 μL/well and a test compound in two-fold dilution series from 10^−7 M was added to the second to the twelfth rows (maximum concentration: the second row). The first row was used for blank. Maxacalcitol was added to lines A and B and the compound of the present invention was added to lines C and D. After incubation for 72 hours under a moisturized condition in the presence of 5% CO2 at 37° C. using a CO2 incubator, 101 μL of PBS containing 50 mM WST-1 (manufactured by Takara Bio) and 10 μM phorbol 12,13-didecanoate (manufactured by Sigma) were added to each well followed by incubating for 4 hours more. Absorbance (reference wavelength: 655 nM) at 450 nM of a WST-1 formazan dye generated by conversion from WST-1 by oxygen radical produced from the differentiated HL-60 cells was measured by a Benchmark microplate reader (manufactured by BioRad). An absorbance meter control software MPM 3 (manufactured by BioRad) was used and, from a concentration-absorbance curve, the 50%-maximal effect concentration (hereinafter, referred to as “EC50”) of each was determined by a logistic curve regression.
For orientation: Tetrazolium assays rely on reduction of a dye to a coloured formazan, in cell work by metabolically active cells.

Data set [5] can be described thus: Action to raise the urinary excretion of calcium (1), repeated percutaneous administration. The data set is classed as in vivo, rat. The note with it: male SD rats, percutaneous 0.33, 3.3 and 33 μg/kg/day once daily for three days, urine collected every 24 hours, compared with control. As to the method: Open triangles show a control; open squares show the case where 0.33 μg/kg of the compound of Example 1 was administered; open rhombuses show the case where 3.3 μg/kg of the compound of Example 1 was administered; open circles show the case where 33 μg/kg of the compound of Example 1 was administered; black squares show the case where 0.33 μg/kg of maxacalcitol was administered; black rhombuses show the case where 3.3 μg/kg of maxacalcitol was administered; and black circles show the case where 33 μg/kg of maxacalcitol was administered.
A solution of the compound of the present invention mentioned in Example 1 or maxacalcitol in ethanol containing 0.3% of DMSO was repeatedly subjected to a percutaneous administration (0.33, 3.3 and 33 μg/200 μl/kg/day) for three days once daily onto the back of male rats (7 weeks of age) of the SD strain. An ethanol solution containing 0.3% of DMSO was administered to a control group. Calcium concentration in urine collected every 24 hours after administration on each day was measured and multiplied by the amount of urine to calculate the urinary excretion of calcium.

Structures are written as SMILES.

Take `C=C1/C(=C\C=C2/CCC[C@]3(C)[C@@H]([C@H](C)OCCC(C)(C)O)CC[C@@H]23)C[C@@H](O)C[C@@H]1O` [Maxacalcitol, (1S,3R,20S)-20-(3-hydroxy-3-methylbutyl-oxy)-9,10-secopregna-5Z,7E,10(19)-trien-1,3-diol, reference compound]: the “Metabolic Rate” value in data set [1] is 10 pmol/min/mg. Also, in data set [2] (urine collected during 24 hours after administration), the “Urinary excretion of calcium” value was 1.5 mg. In addition, the “Ratio of urinary excretion of calcium (to Control)” value in data set [2] (urine collected during 24 hours, relative to control group) was 211%. Besides, the “Calcium Concentration in Serum” value in data set [3] is 15.0 mg/dL. In addition, the EC50 in data set [4] turned out to be 5.4 nM. For the same molecule, the “Urinary excretion of calcium (FIG. 1)” value in data set [5] is “increased in a dose-dependent manner”.
